Experimental data reported in EP4775577A1, “RAS INHIBITOR” (Tyligand Bioscience (Shanghai) Limited, priority 2023, dated 2025).
Like-named read-outs stand apart in the source and are kept apart here. Each block holds one compound with its values, some of them ahead of it.

What was measured:
[1] = test system: KRAS G12V mutant NCI-H727 cells; assay: Proliferation inhibition of NCI-H727 cells, 3D CellTiter-Glo assay (Method B); format: cell-based, human; conditions: Homo sapiens, NCI-H727, 120 h, Method B; 3D culture with 0.65% methylcellulose, 5 days, CTG; read-out: NCI-H727 IC50/nM
Experimental: NCI-H727 cells (Nanjing Kebai Biotechnology Co., Ltd., catalog number CBP60182, adherent, culture medium RPMI-1640+10%FBS (GIBCO, Cat#10091-148)) were cultured at 37°C, 5% CO2, and 95% humidity.
3D cell viability assay: Cells in the logarithmic growth phase were harvested and counted using a platelet counter. Cell viability was assessed using the trypan blue exclusion method to ensure a viability of over 90%. The 3D cell culture medium was prepared by adding 1% MC (methylcellulose, Sigma, Cat#M0512) to RPMI-1640 medium and 10% FBS. The cell concentration was adjusted to approximately 25,000 cells/mL using the 3D medium, and the methylcellulose (MC) content was set to 0.65%. Then, 80 µL of cell suspension was added to each 96-well clear, flat-bottomed, black-walled plate (Greiner, Cat# 655096). The cells in the 96-well plates were cultured overnight at 37°C and 5% CO2.
Drug preparation for IC50 assay: A 5-fold drug solution was prepared using culture medium. 20 µL of the drug solution was added to each well of a 96-well plate seeded with cells to achieve a working concentration of up to 10 µM, with a 3× dilution, and 9 concentrations. 2 replicate wells for each drug concentration were set. The cells in the drug-treated 96-well plates were cultured at 37°C and 5% CO2 for additional 5 days, then CTG assay (CellTiter-Glo® Luminescent Cell Viability Assay (Promega, Cat#G7573)) were performed.
The cell plate was equilibrated to room temperature for 30 minutes and the CTG reagent was thawed. 50 µL of CTG solution was added to each well for detection and the plate was shaken on an orbital shaker for 5 minutes to lyse the cells. The cell plate was then placed at room temperature for 25 minutes to stabilize the cryo-luminescence signal, and the cryo-luminescence value was read (EnVision® multi-plate reader, PerkinElmer#2105).
(§1) Data was analyzed using GraphPad Prism software. The dose-response-inhibition equation was used to fit the data to obtain the dose-response curve, and the IC50 value (nM) was calculated accordingly. [formula]

[2] = test system: KRAS G12D mutant AGS cells; assay: Proliferation inhibition of AGS cells, CellTiter-Glo assay; format: cell-based, human; conditions: 3 days, CTG, read-out: AGS IC50/nM
Experimental: AGS cells (Nanjing Kebai Biotechnology Co., Ltd., catalog number CBP60476, adherent, culture medium (F12K Nutrient Mixture+10% FBS (GIBCO, Cat#10091-148) were cultured at 37°C, 5% CO2, and 95% humidity at a density of 1500 cells/well. Cells in the logarithmic growth phase were harvested and counted using a Countstar automated cell counter based on the classic trypan blue staining method to ensure cell viability was above 90%. The cell concentration was adjusted, and 80 µL of cell suspension was added to each 96-well clear flat-bottomed, black-walled plate (Greiner, Cat# 655090). The cells in the 96-well plates were then cultured at 37°C and 5% CO2.
Drug preparation for IC50 assay: A 5-fold drug solution was prepared using culture medium. 20 µL of the drug solution was added to each well of a 96-well plate seeded with cells to achieve a working concentration of up to 10 µM, with a 3 × dilution, and a total of 9 concentrations. 2 replicate wells for each drug concentration were set. The cells in the drug-treated 96-well plates were cultured at 37°C and 5% CO2 for additional 3 days and then CTG assay were performed.
The cell plate was equilibrated to room temperature for 30 minutes and the CTG reagent (CellTiter-Glo® Luminescent Cell Viability Assay (Promega, Cat# G7573)) was thawed. 50 µL of CTG solution was added to each well and the plate was shaken on an orbital shaker for 2 minutes to lyse the cells. The cell plate was placed at room temperature for 10 minutes to stabilize the cryo-luminescence signal and the cryo-luminescence value was read (EnVision® Multifunctional microplate reader, PerkinElmer #2105).
as §1

IC50 [1]: 40.7 nM
IC50 ([2]; Homo sapiens, AGS, 72 h): 112 nM
Structure (SMILES): CN1CC[C@H](C(F)F)[C@](C)(COc2nc(N3CCC[C@@](C)(O)C3)c3cc(C(F)(F)F)c(-c4cccc5sc(N)c(C#N)c45)c(F)c3n2)C1 (atropisomer, axis not shown) [Example 3A, (R)-2-amino-4-(2-(((3S,4S)-4-(difluoromethyl)-1,3-dimethylpiperidine-3-yl)methoxy)-8-fluoro-4-((R)-3-hydroxy-3-methylpiperidine-1-yl)-6-(trifluoromethyl)quinazoline-7-yl)benzo[b]thiophene-3-carbonitrile]

IC50 [1]: 2.4 nM
IC50 ([2]; Homo sapiens, AGS, 72 h): 13.1 nM
Structure (SMILES): [2H]C([2H])([2H])N1CCC(C(F)F)C(C)(COc2nc(N3CCOCC(C)(O)C3)c3cc(C(F)(F)F)c(-c4ccc(F)c5sc(N)c(C#N)c45)c(F)c3n2)C1 (stereo not shown) [Example 99]

IC50 [1]: 168 nM
IC50 ([2]; Homo sapiens, AGS, 72 h): 584 nM
Structure (SMILES): CN1CC/C(=C\F)[C@](C)(COc2nc(N3CCCN4C(=O)OCC4C3)c3cc(C(F)(F)F)c(-c4cccc5sc(N)c(C#N)c45)c(F)c3n2)C1 (stereo partly shown) [Example 113]

IC50 [1]: 6.9 nM
IC50 ([2]; Homo sapiens, AGS, 72 h): < 1.5 nM
Structure (SMILES): CN1CC/C(=C\F)[C@](C)(COc2nc(N3CCCn4nc(C(=O)N(C)C)c(C#N)c4C3)c3cc(C(F)(F)F)c(-c4cccc5sc(N)c(C#N)c45)c(F)c3n2)C1 (single isomer, unassigned) [Example 119B]

IC50 [1]: 2.1 nM
IC50 ([2]; Homo sapiens, AGS, 72 h): 41.5 nM
Structure (SMILES): CN1CC/C(=C\F)[C@](C)(COc2nc(N3CC[C@@H](C#N)[C@H](O)C3)c3cc(C(F)(F)F)c(-c4c(F)ccc5sc(N)c(C#N)c45)c(F)c3n2)C1 (single isomer, unassigned) [Example 252]

IC50 [1]: 48.5 nM
IC50 ([2]; Homo sapiens, AGS, 72 h): 84.7 nM
Structure (SMILES): [2H]C([2H])([2H])N1CC[C@H](C(F)F)[C@](C)(COc2nc(N3CCOC[C@@](C)(O)C3)c3cc(C#N)c(-c4cccc5sc(N)c(C#N)c45)c(F)c3n2)C1 [Example 91]

IC50 [1]: 27.1 nM
IC50 ([2]; Homo sapiens, AGS, 72 h): 15.8 nM
Structure (SMILES): [2H]C([2H])([2H])N1CC/C(=C\F)[C@](C)(COc2nc(N3CCCn4nc(C(=O)N(C)C)cc4C3)c3cc([N+](=O)[O-])c(-c4cccc5sc(N)c(C#N)c45)c(F)c3n2)C1 [Example 98]

IC50 [1]: 47.7 nM
IC50 ([2]; Homo sapiens, AGS, 72 h): 20 nM
Structure (SMILES): CN1CC/C(=C\F)[C@](C)(COc2nc(N3CCCn4nc(C(=O)N(C)C)cc4C3)c3cc(C(F)F)c(-c4cccc5sc(N)c(C#N)c45)c(F)c3n2)C1 [Example 100]

The next lines start with the compound.

Structure (SMILES): Cc1cc(N)nc(-c2c(Cl)cc3c(N4Cc5cc(C(=O)N(C)C)nn5CCC4C)nc(OCC4(C)CN(C)CCC4=CF)nc3c2F)c1C(F)(F)F (single isomer, unassigned) [Example 213A]
IC50 [1]: 43.1 nM
IC50 ([2]; Homo sapiens, AGS, 72 h): 49.6 nM

Structure (SMILES): [2H]C([2H])([2H])N1CC/C(=C\F)[C@](C)(COc2nc(N3Cc4c(Cl)c(C(=O)N(C)C)nn4CC[C@@H]3C)c3cc(CC)c(-c4c(F)ccc5sc(N)c(C#N)c45)c(F)c3n2)C1 (single isomer, unassigned) [Example 182A]
IC50 [1]: < 1.5 nM
IC50 ([2]; Homo sapiens, AGS, 72 h): 2 nM

Structure (SMILES): [2H]C([2H])([2H])N1CC/C(=C\F)[C@](C)(COc2nc(N3Cc4c(C)c(C(=O)N(C)C)nn4CC[C@@H]3C)c3cc(CC)c(-c4c(F)ccc5sc(N)c(C#N)c45)c(F)c3n2)C1 (single isomer, unassigned) [Example 183A]
IC50 [1]: < 1.5 nM
IC50 ([2]; Homo sapiens, AGS, 72 h): < 1.5 nM

Structure (SMILES): CN1CC/C(=C\F)[C@](C)(COc2nc(N3CCCn4nc(C(=O)N(C)C)cc4C3)c3cc(/C=C\F)c(-c4cccc5sc(N)c(C#N)c45)c(F)c3n2)C1 (single isomer, unassigned) [Example 112B]
IC50 [1]: 11 nM
IC50 ([2]; Homo sapiens, AGS, 72 h): 5.3 nM

Structure (SMILES): CCc1cc2c(N3Cc4cc(C(=O)N(C)C)nn4CC[C@@H]3C)nc(OC[C@]3(C)CN(C)CC/C3=C\F)nc2c(F)c1-c1ncc(F)c2sc(N)c(C#N)c12 [Example 170A]
IC50 [1]: 81.9 nM
IC50 ([2]; Homo sapiens, AGS, 72 h): 33.2 nM

Structure (SMILES): [2H]C([2H])([2H])N1CC/C(=C\F)[C@](C)(COc2nc(N3Cc4c(C#C)c(C(=O)N(C)C)nn4CC[C@@H]3C)c3cc(CC)c(-c4c(F)ccc5sc(N)c(C#N)c45)c(F)c3n2)C1 (single isomer, unassigned) [Example 184A]
IC50 [1]: 4.3 nM
IC50 ([2]; Homo sapiens, AGS, 72 h): 3.4 nM

Structure (SMILES): CCN1CC/C(=C\F)[C@](C)(COc2nc(N3CCCn4nc(C(=O)N(C)C)c(Cl)c4C3)c3cc(Cl)c(-c4c(F)ccc5sc(N)c(C#N)c45)c(C)c3n2)C1 [Example 180]
IC50 [1]: 11.3 nM
IC50 ([2]; Homo sapiens, AGS, 72 h): 10.6 nM

Structure (SMILES): [2H]C([2H])([2H])N1CCC(=CF)C(C)(COc2nc(N3CCCn4nc(C(=O)N(C)C)c(Cl)c4C3)c3cc(CC)c(-c4c(F)ccc5sc(N)c(C#N)c45)c(C)c3n2)C1 (stereo not shown) [Example 186]
IC50 [1]: 5.4 nM
IC50 ([2]; Homo sapiens, AGS, 72 h): 4.4 nM

Structure (SMILES): CCN1CC/C(=C\F)[C@](C)(COc2nc(N3CCCn4nc(C(=O)N(C)C)c(Cl)c4C3)c3cc(C(F)(F)F)c(-c4ncc(F)c5sc(N)c(C#N)c45)c(F)c3n2)C1 [Example 253]
IC50 [1]: 8.7 nM
IC50 ([2]; Homo sapiens, AGS, 72 h): 2.5 nM

Structure (SMILES): CN1CC/C(=C\F)[C@](C)(COc2nc(N3CCCn4nc(C(=O)N(C)C)c(Cl)c4C3)c3cc(C4CC4)c(-c4ncc(F)c5sc(N)c(C#N)c45)c(F)c3n2)C1 [Example 167A]
IC50 [1]: 96.7 nM
IC50 ([2]; Homo sapiens, AGS, 72 h): 21.7 nM

Structure (SMILES): CCN1CC/C(=C\F)[C@](C)(COc2nc(N3Cc4cc(C(=O)N(C)C)nn4CC[C@@H]3C)c3cc(C(F)(F)F)c(-c4c(F)ccc5sc(N)c(C#N)c45)c(F)c3n2)C1 (single isomer, unassigned) [Example 248A]
IC50 [1]: < 1.5 nM
IC50 ([2]; Homo sapiens, AGS, 72 h): < 1.5 nM

Structure (SMILES): [2H]C([2H])([2H])N1CC/C(=C\F)[C@](C)(COc2nc(N3CCOC[C@@](C)(O)C3)c3cc(Cl)c(-c4cccc5sc(N)c(C#N)c45)c(F)c3n2)C1 [Example 84, 2-Amino-4-(6-chloro-8-fluoro-2-(((S,E)-4-(fluoromethylene)-3-methyl-1-(methyl-d3)piperidine-3-yl)methoxy)-4-((S)-6-hydroxy-6-methyl-1,4-oxazacycloheptane-4-yl)quinazoline-7-yl)benzo[b]thiophene-3-carbonitrile]
IC50 [1]: 77.7 nM
IC50 ([2]; Homo sapiens, AGS, 72 h): 59 nM

Structure (SMILES): C[C@H]1CCn2nc(C(=O)N(C)C)cc2CN1c1nc(OC[C@]2(C)CN(C)CC/C2=C\F)nc2c(F)c(-c3ncc(F)c4sc(N)c(C#N)c34)c(C3CC3)cc12 [Example 168A]
IC50 [1]: 85 nM
IC50 ([2]; Homo sapiens, AGS, 72 h): 42.1 nM

Structure (SMILES): [2H]C([2H])([2H])N1CCC(=CF)C(C)(COc2nc(N3Cc4cc(C(=O)N(C)C)nn4CCC3C)c3cc(Cl)c(-c4c(F)ccc5sc(N)c(C#N)c45)c(Cl)c3n2)C1 (stereo not shown) [Example 197]
IC50 [1]: 2.1 nM
IC50 ([2]; Homo sapiens, AGS, 72 h): 3 nM

Structure (SMILES): [2H]C([2H])([2H])N1CCC(=CF)C(C)(COc2nc(N3Cc4cc(C(=O)N(C)C)nn4CCC3C)c3cc(CC)c(-c4c(F)ccc5sc(N)c(C#N)c45)c(C)c3n2)C1 (stereo not shown) [Example 188]
IC50 [1]: 3.1 nM
IC50 ([2]; Homo sapiens, AGS, 72 h): 2.9 nM

Structure (SMILES): CN1CC/C(=C\F)[C@](C)(COc2nc(N3CCCn4nc(N)c(C(=O)N(C)C)c4C3)c3cc(C(F)(F)F)c(-c4cccc5sc(N)c(C#N)c45)c(F)c3n2)C1 [Example 121]
IC50 [1]: 439 nM
IC50 ([2]; Homo sapiens, AGS, 72 h): 179 nM

Structure (SMILES): CN1CC/C(=C\F)[C@](C)(COc2nc(N3CCCn4nc(C(=O)N(C)C)c(Cl)c4C3)c3cc(C4CC4)c(-c4c(F)ccc5sc(N)c(C#N)c45)c(F)c3n2)C1 (single isomer, unassigned) [Example 161A]
IC50 [1]: 4.3 nM
IC50 [2]: 2.4 nM

Structure (SMILES): CCN1CCC(=CF)C(C)(COc2nc(N3Cc4cc(C(=O)N5CCCC5)nn4CCC3C)c3cc(Cl)c(-c4c(F)ccc5sc(N)c(C#N)c45)c(F)c3n2)C1 (stereo not shown) [Example 262A]
IC50 [1]: 2.4 nM
IC50 ([2]; Homo sapiens, AGS, 72 h): 2.9 nM
